One data set concerns the target T1, recombinant ZMO0976 (Zymomonas mobilis, UniProt Q5NNW0).
T1 sequence (Q5NNW0 1-340): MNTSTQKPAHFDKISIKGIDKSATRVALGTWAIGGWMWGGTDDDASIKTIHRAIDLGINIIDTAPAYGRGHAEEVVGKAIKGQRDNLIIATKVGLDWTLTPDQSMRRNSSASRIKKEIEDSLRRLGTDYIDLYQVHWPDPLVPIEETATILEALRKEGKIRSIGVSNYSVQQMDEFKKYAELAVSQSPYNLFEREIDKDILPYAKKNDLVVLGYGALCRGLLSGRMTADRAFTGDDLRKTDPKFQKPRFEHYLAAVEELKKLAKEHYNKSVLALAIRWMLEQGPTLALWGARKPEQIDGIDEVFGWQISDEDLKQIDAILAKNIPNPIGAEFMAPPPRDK
As to the kind of experiment: Substrate and cofactor profile and Michaelis-Menten kinetics of recombinant ZMO0976. Format: biochemical, Z. mobilis. How it is done:
(§1) E. coli cells were prepared for enzymatic assays using the procedure described in, for example, Akinterinwa, and Cirino, “Heterologous expression of D-xylulokinase from Pichia stipitis enables high levels of xylitol production by engineered Escherichia coli growing on xylose,” Metabolic Engineering 11(1): pp. 48-55. Briefly, cells were harvested by centrifugation at 5,000 g at 4° C. for 30 min. Cells were washed once with extraction buffer [10 mM Tris-HCl pH 7.5, 5 mM MgCl2, 1 mM dithothreitol (DTT) and 1 mM phenylmethylsulfonyl fluoride (PMSF) (Sigma-Aldrich, St. Louis, Mo.)]. Washed cell pellets were stored at −20° C. until use. Cell pellets were resuspended to an OD of 50 in equilibration buffer (50 mM Na2HPO4, 300 mM NaCl and 10 mM imidazole at pH 8 (Sigma-Aldrich, St. Louis, Mo.)) supplemented with 1 mM DTT and 1 mM PMSF, and sonicated (8 cycles of 10 s with 30 s cooling period). Cell debris was discarded after centrifugation at 16,000 g for 20 min at 4° C. Supernatant was used as cell-free extract (CFE) for enzymatic assays. Bradford Assay was used for estimation of protein concentration in the extract. His-tagged protein in the cell-free extract was purified at 4° C. using HIS-Select® HF Nickel Affinity Gel (Sigma-Aldrich, St. Louis, Mo.), which employs immobilized metal-ion affinity chromatography (IMAC). Manufacturer's protocol for large scale purification was followed. Briefly, 10 ml of cell-free extract was added to 1 ml of affinity gel in equilibration buffer. After overnight incubation, the gel was washed five times with equilibration buffer. The bound his-tagged protein was then eluted using 2 ml of elution buffer (50 mM Na2HPO4, 300 mM NaCl and 250 mM imidazole at pH 8). Imidazole was removed by overnight dialysis at 4° C. using extraction buffer as the dialysis solution.
(§2) Cell-free extract for Z. mobilis was prepared as above except that extraction buffer was used for sonication and after which, cell debris were spun down at higher centrifugal force (53,300 g). All enzymatic assay reactions were carried out in a final volume of 200 μl on a microplate. NAD(P)H (Sigma-Aldrich, St. Louis, Mo.) absorbance was measured at 340 nm using Spectramax M5 Plus spectrophotometer (Molecular devices, Sunnyvale, Calif.). Xylose reductase was assayed in McIlvaine buffer at pH 7.2 (prepared by adding 16.5 ml of 0.2 M Na2HPO4 to 3.5 ml of 0.1 M citric acid (Sigma-Aldrich, St. Louis, Mo.)) containing 0.35 mM NADPH or NADH (as indicated) and an appropriate volume of sample (cell-free extract or purified protein) according to Viikari, L. and M. Korhola (1986), “Fructose metabolism in Zymomonas mobilis,” Applied Microbiology and Biotechnology 24(6): 471-476.
(§3) Xylose concentration in the assay mixture is indicated in the text. For measuring the catalytic activity of xylose reductase towards other substrates, similar assay conditions were used. Km and Vmax were determined by varying the substrate concentrations in the assay mixture and fitting the data to Lineweaver-Burk equation: 1/v=(Km/Vmax) […]+1/Vmax. Xylitol concentration was determined enzymatically. The reaction was carried out with a total volume of 200 μl in 42 mM Tris-HCl buffer at pH 8.5, 5 mM NAD, 10 mM MgSO4 (Sigma-Aldrich, St. Louis, Mo.), 4 U/ml sorbitol dehydrogenase (Roche Diagnostics, Indianapolis, Ind.) and 10 μl of sample. Xylitol concentration was estimated based on the amount of NADH produced by xylitol containing samples compared to that produced by xylitol standards. SDS-PAGE and Coommassie blue staining were used to confirm the expression of ZMO0976 and mZMO0976 proteins. 15 μg of cell-free extract protein and 1 μg of purified protein were loaded on a 12% Tris-HCl gel (Bio-Rad, Hercules, Calif.). Cell growth was determined by measuring optical density (OD) at 600 nm using spectrophotometer (Beckman Coulter DU 530, Brea, Calif.).

In another data set the test system is Z. mobilis. Conditions: cited from earlier work.
A short description of data set [1]: Reductase activity of purified ZMO0976/mZMO0976 towards acetaldehyde. Format: biochemical. Conditions: for Specific XR activity, Acetaldehyde (520 mM): purified protein, no unit in table, in mU/mg protein. As to the method: (§4) E. coli cells were prepared for enzymatic assays using the procedure described in, for example, Akinterinwa, and Cirino, “Heterologous expression of D-xylulokinase from Pichia stipitis enables high levels of xylitol production by engineered Escherichia coli growing on xylose,” Metabolic Engineering 11(1): pp. 48-55. Briefly, cells were harvested by centrifugation at 5,000 g at 4° C. for 30 min. Cells were washed once with extraction buffer [10 mM Tris-HCl pH 7.5, 5 mM MgCl2, 1 mM dithothreitol (DTT) and 1 mM phenylmethylsulfonyl fluoride (PMSF) (Sigma-Aldrich, St. Louis, Mo.)]. Washed cell pellets were stored at −20° C. until use. Cell pellets were resuspended to an OD of 50 in equilibration buffer (50 mM Na2HPO4, 300 mM NaCl and 10 mM imidazole at pH 8 (Sigma-Aldrich, St. Louis, Mo.)) supplemented with 1 mM DTT and 1 mM PMSF, and sonicated (8 cycles of 10 s with 30 s cooling period). Cell debris was discarded after centrifugation at 16,000 g for 20 min at 4° C. Supernatant was used as cell-free extract (CFE) for enzymatic assays. Bradford Assay was used for estimation of protein concentration in the extract. His-tagged protein in the cell-free extract was purified at 4° C. using HIS-Select® HF Nickel Affinity Gel (Sigma-Aldrich, St. Louis, Mo.), which employs immobilized metal-ion affinity chromatography (IMAC). […]
(§5) Cell-free extract for Z. mobilis was prepared as above except that extraction buffer was used for sonication and after which, cell debris were spun down at higher centrifugal force (53,300 g). […] NAD(P)H (Sigma-Aldrich, St. Louis, Mo.) absorbance was measured at 340 nm using Spectramax M5 Plus spectrophotometer (Molecular devices, Sunnyvale, Calif.). […]
(§6) Xylose concentration in the assay mixture is indicated in the text. […] Km and Vmax were determined by varying the substrate concentrations in the assay mixture and fitting the data to Lineweaver-Burk equation: 1/v=(Km/Vmax) […]+1/Vmax. Xylitol concentration was determined enzymatically. […] Cell growth was determined by measuring optical density (OD) at 600 nm using spectrophotometer (Beckman Coulter DU 530, Brea, Calif.).

Data set [2] is described as follows: NADPH-dependent xylose reductase (XR) activity of recombinant ZMO0976/mZMO0976, E. coli UT5600 cell-free extract and purified protein. Format: biochemical. The settings on record: for XR activities of the purified proteins: His-tag purified protein, NADPH; for Xylose reductase activity: NADPH as cofactor, purified protein or cell-free extract (CFE) as named in label. How it is done:
as §1, §2
as §3, with “Xylitol concentration was estimated based on the amount of NADH produced by xylitol containing samples compared to that produced by xylitol standards. SDS-PAGE and Coommassie blue staining were used to confirm the expression of ZMO0976 and mZMO0976 proteins. 15 μg of cell-free extract protein and 1 μg of purified protein were loaded on a 12% Tris-HCl gel (Bio-Rad, Hercules, Calif.).” left out

Data set [3] in a line: Reductase activity of purified ZMO0976/mZMO0976 towards benzaldehyde. It counts as biochemical. Conditions: for Specific XR activity, Benzaldehyde (2 mM): purified protein, no unit in table, in mU/mg protein. How it is done: as §4, §5, §6
The nature of data set [4]: Reductase activity of purified ZMO0976/mZMO0976 towards furfural. Format: biochemical. The settings on record: for Specific XR activity, Furfural (10 mM): purified protein, no unit in table, in mU/mg protein. As to the method:
as §4, §5, §6

[5] abbreviates: substrate 260 mM; NADPH cofactor; benzaldehyde = 1.
Where [6] appears, read: 0.35 mM NADPH; Lineweaver-Burk fit.

Here are results for seven molecules from patent US20120196342A1, “Industrial Applications of A Novel Aldo/Keto Reductase Of Zymomonas Mobilis” (priority 2011, published 2012).

Substitutions are numbered along the chain they refer to. Names may count otherwise. Like-named read-outs stand apart in the source and are kept apart here.

On to `CC=O` [Acetaldehyde], for which the “Activity of ZMO0976 towards the substrate (in words)” value (“Activity … (in words)” below) on recombinant ZMO0976 (NADPH as cofactor) is recorded as “showed activity”. Further, the “Fold reduction in ZMO0976 activity with NADH as cofactor compared to NADPH” value at recombinant ZMO0976 (substrate 260 mM; 0.35 mM of either cofactor) was 53. In addition, on recombinant ZMO0976 (setting [5]), the Relative activity is reported as 0.62.
One may read the Km as the concentration of substrate that gives half-maximal velocity. Take `O=Cc1ccccc1` [Benzaldehyde]: at recombinant ZMO0976, the “Affinity of ZMO0976 compared with xylose (in words)” value is recorded as “one to two orders of magnitude higher” and the “Km, fold lower than xylose” value was “about 150 fold”. Also, at recombinant ZMO0976 (setting [6]), the “Apparent Vmax” value came out at 7200 ± 200 mU/mg protein. In addition, the Km on recombinant ZMO0976 (0.35 mM NADPH; Lineweaver-Burk fit; read-out: Apparent Km) amounted to 1770 µM. Further, the “Activity … (in words)” value at recombinant ZMO0976 (NADPH as cofactor) is recorded as “showed activity”. For the same molecule, at recombinant ZMO0976 (substrate 2 mM; NADPH cofactor; benzaldehyde = 1), the Relative activity is on record as 1.
Turning to `O=C(CO)[C@@H](O)[C@H](O)[C@H](O)CO` [Fructose], at recombinant ZMO0976 (NADPH as cofactor), the “Activity … (in words)” value is “negligible activity”. The Relative activity at recombinant ZMO0976 (setting [5]) worked out at 0.
`O=Cc1ccco1` [Furfural]: in the data set with Z. mobilis, the “Concentration at which growth is completely inhibited” value is given as 52 mM and the “Concentration that reduces the growth rate of Z. mobilis by 25%” value is listed as 7.3 mM. Besides, on recombinant ZMO0976, the “Affinity of ZMO0976 compared with xylose (in words)” value is “one to two orders of magnitude higher”. Also, the “Apparent Vmax” value at recombinant ZMO0976 (setting [6]) came out at 5000 ± 1300 mU/mg protein. On recombinant ZMO0976 (NADPH as cofactor), the “Activity … (in words)” value is listed as “showed activity”. In addition, on recombinant ZMO0976 (read-out: Apparent Km; 0.35 mM NADPH; Lineweaver-Burk fit), the Km worked out at 4150 µM. In addition, the Relative activity at recombinant ZMO0976 (substrate 5.2 mM; NADPH cofactor; benzaldehyde = 1) is given as 0.81. Moreover, the “Fold reduction in ZMO0976 activity with NADH as cofactor compared to NADPH” value on recombinant ZMO0976 (substrate 10 mM; 0.35 mM of either cofactor) was found to be 10.
Consider `O=Cc1ccc(CO)o1` [HMF, 5-hydroxymethylfurfural], for which, in the data set on Z. mobilis, the “Concentration at which growth is completely inhibited” value is 63 mM and the “Concentration that reduces the growth rate of Z. mobilis by 25%” value is 9.5 mM. Moreover, at recombinant ZMO0976 (NADPH as cofactor), the “Activity … (in words)” value is given as “showed activity”. Moreover, the Relative activity at recombinant ZMO0976 (substrate 10 mM; NADPH cofactor; benzaldehyde = 1) turned out to be 0.11.

B1: ZMO0976: 341 amino acid aldo/keto reductase of Z. mobilis ZM4, His-tagged, expressed in E. coli UT5600 (protein)
chain: T1 sequence (Q5NNW0 1-340)
modifications: His tag; sequence of aldo/keto reductase ZMO0976 (see Fig. 4A)
notes: 341 amino acid aldo/keto reductase of Z. mobilis ZM4, His-tagged, expressed in E. coli UT5600
In the case of B1, in data set [1], the acetaldehyde reductase activity was 2500±400 mU/mg protein and the “Specific XR activity, Acetaldehyde (520 mM)” value was found to be 2500 ± 400. Besides, the “XR activities of the purified proteins” value in data set [2] was 3400 mU/mg. Moreover, the Xylose reductase activity in data set [2] (listed as Purified recombinant ZMO0976) is 3400 ± 200 mU/mg protein. For the same molecule, the Xylose reductase activity in data set [2] (listed as ZM00976) was 3400±200 mU/mg protein. Also, in data set [3], the benzaldehyde reductase activity was found to be 4030±250 mU/mg protein and the “Specific XR activity, Benzaldehyde (2 mM)” value is on record as 4030 ± 250. In data set [4], the furfural reductase activity came to 5470±60 mU/mg protein and the “Specific XR activity, Furfural (10 mM)” value worked out at 5470 ± 60.

B2: mZMO0976: mutated ZMO0976 from adapted strain A3, single arginine to cysteine mutation at residue 292 (C874T) (protein)
chain: T1 sequence (Q5NNW0 1-340) with R292C
modifications: His tag; sequence of aldo/keto reductase mZMO0976 (see Fig. 4B)
On to B2, for which the “Specific XR activity, Acetaldehyde (520 mM)” value in data set [1] amounted to 170 ± 30. Also, in data set [2], the “XR activities of the purified proteins” value came to 140 mU/mg and the Xylose reductase activity was 140 ± 50 mU/mg protein. In addition, in data set [3], the “Specific XR activity, Benzaldehyde (2 mM)” value turned out to be 40 ± 10. Besides, in data set [4], the “Specific XR activity, Furfural (10 mM)” value came to 180 ± 30.
